We go through 16 compounds from ChEMBL document CHEMBL2346545, “Quinic acid derivatives from Pimpinella brachycarpa exert anti-neuroinflammatory activity in lipopolysaccharide-induced microglia” (Bioorg Med Chem Lett, 2013).

Calls of active or inactive are those of the source. The rule behind the calls is not given here.

The subject of series [1] is BV-2. Description: Anti-neuroinflammatory activity in mouse BV2 cells assessed as inhibition of LPS-induced nitric oxide production […] by Griess assay relative to control. In kind it is functional, cell-based.
Series [2] can be described thus: Cytotoxicity against mouse BV2 cells assessed as cell viability at 20 uM by MTT assay. In kind it is cell-based, BV-2. The settings on record: read-out: Activity.
The subject of series [3] is RAW264.7. The series is described as follows: Anti-neuroinflammatory activity in mouse RAW264.7 cells assessed as inhibition of LPS-induced nitric oxide production. The class given is functional, cell-based.
Series [4] deals with T1, Nitric oxide synthase, inducible (Mus musculus) (UniProt P29477).
T1 sequence (whole entry): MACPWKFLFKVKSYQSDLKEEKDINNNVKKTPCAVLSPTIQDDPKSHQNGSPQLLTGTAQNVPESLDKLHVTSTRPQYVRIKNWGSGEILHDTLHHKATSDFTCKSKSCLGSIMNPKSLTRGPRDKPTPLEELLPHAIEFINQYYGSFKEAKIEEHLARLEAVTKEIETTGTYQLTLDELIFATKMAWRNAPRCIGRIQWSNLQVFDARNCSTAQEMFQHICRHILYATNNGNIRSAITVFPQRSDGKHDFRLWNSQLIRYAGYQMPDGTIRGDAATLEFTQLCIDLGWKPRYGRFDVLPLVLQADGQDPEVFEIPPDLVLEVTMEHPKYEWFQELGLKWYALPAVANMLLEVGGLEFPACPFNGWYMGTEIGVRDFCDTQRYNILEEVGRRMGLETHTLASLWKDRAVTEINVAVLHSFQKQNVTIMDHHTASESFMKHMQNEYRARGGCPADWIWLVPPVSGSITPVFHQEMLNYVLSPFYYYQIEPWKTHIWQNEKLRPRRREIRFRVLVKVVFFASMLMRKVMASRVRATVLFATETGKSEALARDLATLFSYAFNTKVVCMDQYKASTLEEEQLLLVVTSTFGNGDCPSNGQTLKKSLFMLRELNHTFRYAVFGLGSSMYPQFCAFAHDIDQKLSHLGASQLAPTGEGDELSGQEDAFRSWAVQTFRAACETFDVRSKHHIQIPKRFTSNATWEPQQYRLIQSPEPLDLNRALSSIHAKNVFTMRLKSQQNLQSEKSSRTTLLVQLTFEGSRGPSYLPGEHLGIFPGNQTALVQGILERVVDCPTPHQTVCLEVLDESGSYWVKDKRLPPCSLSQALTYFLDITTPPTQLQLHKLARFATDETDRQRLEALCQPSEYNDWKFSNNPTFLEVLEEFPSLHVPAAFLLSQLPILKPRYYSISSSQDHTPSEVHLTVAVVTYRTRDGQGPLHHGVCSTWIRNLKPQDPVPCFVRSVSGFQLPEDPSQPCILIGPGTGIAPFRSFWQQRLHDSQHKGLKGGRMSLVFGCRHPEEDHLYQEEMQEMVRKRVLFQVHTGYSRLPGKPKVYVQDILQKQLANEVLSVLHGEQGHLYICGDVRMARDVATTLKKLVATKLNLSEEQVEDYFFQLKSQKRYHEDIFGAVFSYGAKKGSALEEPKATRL
Description: Inhibition of iNOS in LPS-treated mouse BV2 cells assessed as decrease in nitrite level at 1 to 5 uM after 12 hrs by Griess assay. In kind it is cell-based. The following applies: BV-2.

Series [5] is described as follows: Reduction of SNP-induced nitrite accumulation at 1 to 10 uM after 180 mins by Griess assay.
In series [6] the test system is RAW264.7. The series is described as follows: Cytotoxicity against mouse RAW264.7 cells assessed as decrease in cell viability at 20 uM. In kind it is cell-based. The following applies: raw264.7, 20 µM.
The subject of series [7] is BV-2. The series is described as follows: Downregulation of iNOS expression in LPS-treated mouse BV2 cells at 1 to 10 uM incubated for 30 mins prior to LPS challenge measured after 6 hrs by Western blot analysis. The class given is functional, cell-based.
The target in series [8] is T1, Nitric oxide synthase, inducible (Mus musculus). The series is described as follows: Inhibition of iNOS in LPS-treated mouse BV2 cells assessed as decrease in nitrite level at 1 to 10 uM after 12 hrs by Griess assay. The class given is cell-based. The settings on record: BV-2.
The test system of series [9] is BV-2. Description: Downregulation of iNOS expression in LPS-treated mouse BV2 cells at 10 uM incubated for 30 mins prior to LPS challenge measured after 6 hrs by Western blot analysis. The class given is functional, cell-based.
Series [10] is described as follows: Reduction of SNP-induced nitrite accumulation at 5 to 10 uM after 180 mins by Griess assay.

`COC(=O)[C@]1(O)C[C@@H](O)[C@@H](O)[C@H](OC(=O)/C=C\c2ccc(O)cc2)C1`: the 50% inhibitory concentration (IC50) in [1] came to 86.4 µM. In addition, the viability at 20 µM in [2] stood at 109%.

For the compound `COC(=O)[C@]1(O)C[C@@H](O)[C@@H](O)[C@H](OC(=O)/C=C/c2ccc(O)cc2)C1`, the IC50 in series [1] was 82 µM. For the same compound, the viability at 20 µM in [2] worked out at 109%.

For the compound `COC(=O)[C@]1(O)C[C@@H](O)[C@@H](O)[C@H](OC(=O)/C=C/c2ccc(O)c(O)c2)C1` [CHLOROGENIC ACID METHYL ESTER], the half-inhibitory concentration (IC50) in series [1] worked out at 12.1 µM. In series [2], the viability at 20 µM amounted to 95.3%.

Take `COC(=O)[C@]1(O)C[C@@H](OC(=O)/C=C/c2ccc(O)c(O)c2)[C@@H](O)[C@H](OC(=O)/C=C/c2ccc(O)c(O)c2)C1`: the half-maximal inhibitory concentration (IC50) in [3] was determined as 42.9 µM; in [1], 9.04 µM. For the same compound, the inhibition entry in series [4] is “Active”. In addition, in series [5], the outcome was Active. Besides, in [6], the Activity result is recorded as “Non-toxic”. In addition, the viability at 20 µM in series [2] was 91.1%. Moreover, the outcome in series [7] was inactive.

Regarding `O=C(/C=C/c1ccc(O)cc1)O[C@@H]1C[C@](OC(=O)/C=C/c2ccc(O)c(O)c2)(C(=O)O)C[C@@H](O)[C@H]1O`, in series [1], the half-maximal inhibitory concentration (IC50) was 23.5 µM. Further, in series [2], the viability at 20 µM worked out at 94.3%.

For `COC(=O)[C@@]1(O)C[C@@H](O)[C@H](OC(=O)/C=C/c2ccc(O)c(O)c2)[C@H](OC(=O)/C=C/c2ccc(O)c(O)c2)C1` [3,4-O-TRANS-CAFFEOYLQUINIC ACID METHYL ESTER], the IC50 in series [1] was determined as 20.2 µM. Also, the viability at 20 µM in [2] is 96.8%.

`CO[C@@H](CC(=O)O[C@@H]1C[C@](OC(=O)/C=C/c2ccc(O)c(O)c2)(C(=O)O)C[C@@H](O)[C@H]1O)c1ccc(O)c(O)c1`: the IC50 in [3] was determined as 175 µM; in series [1], 4.66 µM. Moreover, in [8], the inhibition result is “Active”. Besides, the result in series [9] and in [10] was Active. In addition, the Activity result in [6] is listed as “Non-toxic”. In series [2], the viability at 20 µM stood at 93.2%.

`CO[C@@H](CC(=O)O[C@@]1(C(=O)O)C[C@@H](O)[C@@H](O)[C@H](OC(=O)/C=C/c2ccc(O)c(O)c2)C1)c1ccc(O)c(O)c1`: the concentration for half-maximal inhibition (IC50) in series [1] turned out to be 12.5 µM. Moreover, the viability at 20 µM in [2] is 90.9%.

On to `O=C(/C=C\c1ccc(O)cc1)O[C@@H]1C[C@](OC(=O)/C=C/c2ccc(O)cc2)(C(=O)O)C[C@@H](O)[C@H]1O`, for which the IC50 in [1] was found to be 59.8 µM. For the same compound, the viability at 20 µM in [2] turned out to be 98.1%.

As to `COC(=O)[C@]1(O)C[C@@H](O)[C@@H](O)[C@H](OC(=O)/C=C\c2ccc(O)c(O)c2)C1`, the IC50 in series [1] was determined as 17 µM. Further, the viability at 20 µM in series [2] is 90.6%.

Turning to `COC(=O)[C@]1(O)C[C@@H](O)[C@@H](OC(=O)/C=C/c2ccc(O)c(O)c2)[C@H](OC(=O)/C=C/c2ccc(O)c(O)c2)C1`, the IC50 in series [1] came out at 24.6 µM. In addition, in series [2], the viability at 20 µM was determined as 92.2%.

`O=C(/C=C/c1ccc(O)c(O)c1)O[C@@H]1C[C@](OC(=O)/C=C/c2ccc(O)c(O)c2)(C(=O)O)C[C@@H](O)[C@H]1O` [1,5-O-TRANS-DICAFFEOYLQUINIC ACID]: the half-inhibitory concentration (IC50) in [1] came to 22.6 µM. Also, in series [2], the viability at 20 µM turned out to be 93.7%.

`CNC(=N)NCCC[C@H](N)C(=O)O` [TILARGININE]: the viability at 20 µM in series [2] is 103%.

For `COC(=O)[C@]1(O)C[C@@H](O)[C@@H](OC(=O)/C=C/c2ccc(O)cc2)[C@H](O)C1`, the IC50 in [1] is 45 µM. In series [2], the viability at 20 µM was determined as 108%.

For `COC(=O)[C@]1(O)C[C@@H](O)[C@@H](OC(=O)/C=C/c2ccc(O)c(O)c2)[C@H](O)C1`, the IC50 in [1] amounted to 16.6 µM. Moreover, the viability at 20 µM in series [2] came to 92.6%.

As for `O=C(/C=C\c1ccc(O)cc1)O[C@@H]1C[C@](OC(=O)/C=C\c2ccc(O)cc2)(C(=O)O)C[C@@H](O)[C@H]1O`, the IC50 in [1] was 52.8 µM. In addition, the viability at 20 µM in series [2] amounted to 96%.
